Test results: article PMC6797481, “Identification of an allosteric binding site on the human glycine transporter, GlyT2, for bioactive lipid analgesics” (eLife, 2019)
Residue numbers refer to the chain shown, from its start.

Key:
[1] = system: GlyT1 WT; design: method as in earlier work; conditions: previously published; cited from earlier work
[2] = target: T1, GlyT2 WT (Homo sapiens, UniProt Q9Y345); design: expressed in transfected cells; host or cells: Xenopus laevis oocytes (cRNA injection); conditions: WT GlyT2, previously published, cited from earlier work; for IC50: mean (95% CI); for GlyT2 % max. inhibition: mean ± SEM
T1 sequence (Q9Y345 1-797): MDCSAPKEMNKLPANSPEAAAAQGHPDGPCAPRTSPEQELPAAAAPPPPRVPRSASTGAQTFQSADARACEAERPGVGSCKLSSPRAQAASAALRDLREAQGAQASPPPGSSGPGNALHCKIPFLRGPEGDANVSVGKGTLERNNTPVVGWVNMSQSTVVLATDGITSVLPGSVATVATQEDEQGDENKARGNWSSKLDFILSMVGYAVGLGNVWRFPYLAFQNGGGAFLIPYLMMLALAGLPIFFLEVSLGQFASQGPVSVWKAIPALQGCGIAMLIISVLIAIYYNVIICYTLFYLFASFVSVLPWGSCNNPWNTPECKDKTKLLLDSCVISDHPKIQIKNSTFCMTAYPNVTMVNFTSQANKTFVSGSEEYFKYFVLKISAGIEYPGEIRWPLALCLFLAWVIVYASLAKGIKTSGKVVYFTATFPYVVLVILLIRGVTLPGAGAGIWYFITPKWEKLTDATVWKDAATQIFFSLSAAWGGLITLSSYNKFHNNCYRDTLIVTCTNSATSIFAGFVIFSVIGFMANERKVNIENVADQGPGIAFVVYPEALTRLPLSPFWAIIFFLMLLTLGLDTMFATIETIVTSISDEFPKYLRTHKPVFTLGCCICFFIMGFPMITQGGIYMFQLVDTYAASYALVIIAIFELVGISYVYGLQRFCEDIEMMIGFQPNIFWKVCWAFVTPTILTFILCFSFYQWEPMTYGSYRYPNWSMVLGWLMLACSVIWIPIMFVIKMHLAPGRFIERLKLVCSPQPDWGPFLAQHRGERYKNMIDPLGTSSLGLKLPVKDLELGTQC

[3] = target: T2, GlyT2 V432A mutant (Homo sapiens, UniProt Q9Y345, V432A); assay: Glycine transport currents, two electrode voltage clamp, oocytes expressing GlyT2 V432A; format: cell-based; conditions: GlyT2 V432A; for IC50: greater than maximum concentration applied (footnote a)
T2 construct: expressed in transfected cells; host or cells: Xenopus laevis oocytes (cRNA injection)
T2 sequence (Q9Y345 1-797 V432A): T1 sequence (Q9Y345 1-797) with V432A
Protocol: (§1) Glycine was first applied to establish maximal transport current.
(§2) Compounds were tested for inhibition of glycine transport on Xenopus laevis oocytes expressing mutant GlyT1 and GlyT2 transporters. n values are in brackets, with measurements taken from at least 2 batches of oocytes.

[4] = target: T3, GlyT2 F428A mutant (Homo sapiens, UniProt Q9Y345, F428A); assay: Glycine transport currents, two electrode voltage clamp, oocytes expressing GlyT2 F428A; format: cell-based; conditions: GlyT2 F428A; mean ± SEM
T3 construct: expressed in transfected cells; host or cells: Xenopus laevis oocytes (cRNA injection)
T3 sequence (Q9Y345 1-797 F428A): T1 sequence (Q9Y345 1-797) with F428A
Protocol: as §1, §2

Structure (SMILES)	IC50 [1] [µM]	IC50 [2] [µM]	GlyT2 % max. inhibition [2] [%]	IC50 [3] [µM]	% Max. inhibition ([3]; mean ± SEM)	% Max. inhibition [4] [%]	% Max. inhibition (% inhibition at the highest concentration of inhibitor used) ([3]; footnote b)
CCC=CCCCCCCCCCCCC(=O)NCC(=O)O [C16 ω3 Glycine]	> 10	0.81	65.3 ± 1.9	> 10	1.0 ± 3.0 (p=0.0193) %		
CCCCCC/C=C\CCCCCCCC(=O)NCC(=O)O [C16 ω7 Glycine]	> 10	1.5	92.5 ± 1.6	> 10		56.5	44.2 ± 6.3^b (p=0.0009) %
